The text below walks through data of US5998405A, “Fused tropane-derivatives as neurotransmitter reuptake inhibitors” (NeuroSearch A/S, priority 1996, dated 1999).

As a reminder, the IC50 is the concentration that gives 50% inhibition.

Counter-ions that a name gives are not always drawn.

Holding throughout (type): biochemical, Wistar rat
Assay [1] deals with T1, ^3 H-5-hydroxytryptamine (serotonin) uptake in cortical synaptosomes (Rattus norvegicus, UniProt P31652).
T1 construct: Cerebral cortices from male Wistar rats (150-200 g) are homogenized; from tissue; host or cells: cerebral cortex of male Wistar rats, P2 synaptosomal pellet
Nature of the assay: In vitro inhibition of 3H-5-hydroxytryptamine (3H-5-HT, serotonin) uptake in cortical synaptosomes. The following applies: 3H-5-HT 1 nM, 30 min at 37° C. From the text: (§1) The compounds of the invention have been tested for their ability to inhibit reuptake of dopamine(DA) noradrenaline(NA) and serotonine(5-HT) in synaptosomes.
(§2) Specific neurotransmitter transporters/uptake sites on nerve terminals presumably function to terminate neuronal signaling by removing the neurotransmitters dopamine, noradrenaline and serotonine, respectively, from the synaptic cleft. The activity of the transporter integral proteins can be measured in vitro by synaptosomal uptake of ^3 H-dopamine, ^3 H-noradrenaline and ^3 H-serotonine, respectively.
In Vitro Inhibition of ^3 H-5-hydroxytryptamine (^3 H-5-HT, Serotonin) Uptake in Cortical Synaptosomes
(§3) Tissue preparation: Preparations are performed at 0-4° C. unless otherwise indicated. Cerebral cortices from male Wistar rats (150-200 g) are homogenized for 5-10 sec in 100 volumes of ice-cold 0.32M sucrose containing 1 mM pargyline using an Ultra-Turrax homogenizer. Monoamine oxidase activity will be inhibited in the presence of pargyline. The homogenate is centrifuged at 1000×g for 10 min. The resulting supernatant is then centrifuged at 27,000×g for 50 min and the supernatant is discarded. The pellet (P2) is resuspended in oxygenated (equilibrated with an atmosphere of 96% O2 : 4% CO2 for at least 30 min) Krebs-Ringer incubation buffer (1000 ml per g of original tissue) at pH 7.2 containing 122 mM NaCl, 0.16 mM EDTA, 4.8 mM KCl, 12.7 mM Na2 HPO4, 3.0 mM NaH2 PO4, 1.2 mM MgSO4, 1 mM CaCl2, 10 mM glucose and 1 mM ascorbic acid.
(§4) Assay: Aliquots of 4.0 ml tissue suspension are added to 100 μl of test solution and 100 μl of ^3 H-5-HT (1 nM, final concentration), mixed and incubated for 30 min at 37° C. Non-specific uptake is determined using citalopram (1 μM, final concentration). After incubation the samples are poured directly onto Whatman GF/C glass fibre filters under suction. The filters are then washed three times with 5 ml of ice-cold 0.9% (w/v) NaCl solution. The amount of radioactivity on the filters is determined by conventional liquid scintillation counting. Specific uptake is calculated as the difference between total uptake and non-specific uptake.
The test value is given as IC50 (the concentration (μM) of the test substance which inhibits the specific binding of ^3 H-5-HT by 50%).

Assay [2] addresses T2, ^3 H-dopamine uptake in striatal synaptosomes (Rattus norvegicus, UniProt P23977).
T2 construct: Corpi striati from male Wistar rats (150-200 g) are homogenized; from tissue; host or cells: striatum (corpus striatum) of male Wistar rats, P2 synaptosomal pellet
The experiment in a line: In vitro inhibition of 3H-dopamine (3H-DA) uptake in striatal synaptosomes. Particulars: 3H-DA 1 nM, 25 min at 37° C.
Source text: as §1, §2
In Vitro Inhibition of ^3 H-dopamine (^3 H-DA) Uptake in Striatal Synaptosomes
as §3, with “preparations:” for “preparation:”, “Corpi striati” for “Cerebral cortices”, “(8000” for “(1000”
as §4, with “H-DA” for “H-5-HT”, “25” for “30”, “benztropine (10” for “citalopram (1”
The test value is given as IC50 (the concentration (μM) of the test substance which inhibits the specific binding of ^3 H-DA by 50%).

Assay [3] addresses T3, ^3 H-noradrenaline uptake in hippocampal synaptosomes (Rattus norvegicus, UniProt Q63380).
T3 construct: Hippocampi from male Wistar rats (150-200 g) are homogenized; from tissue; host or cells: hippocampus of male Wistar rats, P2 synaptosomal pellet
The experiment in a line: In vitro inhibition of 3H-noradrenaline (3H-NA) uptake in hippocampal synaptosomes. The following applies: 3H-NA 1 nM, 90 min at 37° C.
Source text: as §1, §2
In Vitro Inhibition of ^3 H-noradrenaline (^3 H-NA) Uptake in Hippocampal Synaptosomes
as §3, with “indicated. Hippocampi” for “indicated. Cerebral cortices”, “buffer (2000” for “buffer (1000”, “MgSO4, 0.97” for “MgSO4, 1”
as §4, with “H-NA” for “H-5-HT”, “90” for “30”, “desipramine” for “citalopram”
The test value is given as IC50 (the concentration (μM) of the test substance which inhibits the specific binding of ^3 H-NA by 50%).

T1 sequence (P31652 whole entry): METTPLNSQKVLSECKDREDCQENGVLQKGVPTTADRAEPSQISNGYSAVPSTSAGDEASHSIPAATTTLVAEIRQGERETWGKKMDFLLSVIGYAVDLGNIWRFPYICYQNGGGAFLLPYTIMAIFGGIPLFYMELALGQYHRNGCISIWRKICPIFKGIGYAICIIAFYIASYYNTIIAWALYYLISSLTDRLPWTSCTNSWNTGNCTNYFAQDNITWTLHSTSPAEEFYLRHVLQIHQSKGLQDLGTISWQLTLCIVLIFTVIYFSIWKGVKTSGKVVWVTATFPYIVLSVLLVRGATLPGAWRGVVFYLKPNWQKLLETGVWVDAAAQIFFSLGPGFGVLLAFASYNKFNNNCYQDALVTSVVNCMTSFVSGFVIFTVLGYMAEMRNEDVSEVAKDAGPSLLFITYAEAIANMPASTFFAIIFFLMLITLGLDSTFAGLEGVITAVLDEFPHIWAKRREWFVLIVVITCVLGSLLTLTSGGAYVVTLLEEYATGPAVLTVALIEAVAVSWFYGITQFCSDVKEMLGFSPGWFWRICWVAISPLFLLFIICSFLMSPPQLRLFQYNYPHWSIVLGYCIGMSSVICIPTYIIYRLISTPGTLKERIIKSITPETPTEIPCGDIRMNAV
T3 sequence (Q63380 1-617): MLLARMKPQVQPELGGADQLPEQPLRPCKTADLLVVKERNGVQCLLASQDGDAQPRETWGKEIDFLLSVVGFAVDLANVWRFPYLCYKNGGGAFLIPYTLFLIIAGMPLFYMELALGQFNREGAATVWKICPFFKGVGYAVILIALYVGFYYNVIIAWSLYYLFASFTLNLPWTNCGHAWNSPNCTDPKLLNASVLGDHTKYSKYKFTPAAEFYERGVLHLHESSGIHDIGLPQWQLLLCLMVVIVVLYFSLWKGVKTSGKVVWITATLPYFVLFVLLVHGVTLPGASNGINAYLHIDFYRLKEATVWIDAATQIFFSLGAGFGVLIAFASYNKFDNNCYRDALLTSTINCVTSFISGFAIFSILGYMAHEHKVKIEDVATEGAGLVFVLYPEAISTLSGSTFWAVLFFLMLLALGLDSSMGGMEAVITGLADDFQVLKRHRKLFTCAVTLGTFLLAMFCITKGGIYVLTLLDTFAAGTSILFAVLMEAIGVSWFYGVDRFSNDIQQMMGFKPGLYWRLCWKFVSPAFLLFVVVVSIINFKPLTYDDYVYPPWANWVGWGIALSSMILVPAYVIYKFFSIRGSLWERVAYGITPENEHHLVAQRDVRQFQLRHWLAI
T2 sequence (P23977 whole entry): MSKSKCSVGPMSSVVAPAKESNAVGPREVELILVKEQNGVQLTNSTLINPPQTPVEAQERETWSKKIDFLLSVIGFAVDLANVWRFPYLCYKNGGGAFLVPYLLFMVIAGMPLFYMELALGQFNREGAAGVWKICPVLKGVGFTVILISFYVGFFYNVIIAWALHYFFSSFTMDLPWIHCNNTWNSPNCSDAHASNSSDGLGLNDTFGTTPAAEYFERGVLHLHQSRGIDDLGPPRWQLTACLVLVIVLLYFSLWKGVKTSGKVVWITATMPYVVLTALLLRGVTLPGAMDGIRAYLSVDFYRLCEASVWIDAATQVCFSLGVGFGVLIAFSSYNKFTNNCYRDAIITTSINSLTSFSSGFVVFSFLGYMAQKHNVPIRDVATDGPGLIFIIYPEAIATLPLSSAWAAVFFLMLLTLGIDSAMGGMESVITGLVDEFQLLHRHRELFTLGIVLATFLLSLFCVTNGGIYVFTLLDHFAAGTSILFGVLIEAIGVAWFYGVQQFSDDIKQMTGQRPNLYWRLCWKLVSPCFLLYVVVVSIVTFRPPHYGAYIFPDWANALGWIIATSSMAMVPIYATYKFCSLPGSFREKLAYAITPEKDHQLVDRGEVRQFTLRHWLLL

On to `OC1CCN2[C@H]3CC[C@@H]2[C@@H]1[C@@H](c1ccc(Cl)c(Cl)c1)C3` (stereo partly drawn) [(1S,2S,4S,7R)-2-(3,4-Dichlorophenyl)-8-azatricyclo[5.4.0.0^4,8]undecan-11-ol], for which the figures for the IC50 in assay [1], in assay [2] and in assay [3] were 2.8 nM, 75 nM and 4.1 nM, respectively.
Turning to `CON=C1CCN2[C@H]3CC[C@@H]2[C@@H]1[C@@H](c1ccc(Cl)c(Cl)c1)C3` [(1S,2S,4S,7R)-2-(3,4-Dichlorophenyl)-8-azatricyclo[5.4.0.0^4,8]undecan-11-one O-methyl-oxime], the IC50 in assay [1] was 3.3 nM; in assay [2] it was 12 nM; in assay [3], 2 nM.
For `O=C1CCN2[C@H]3CC[C@@H]2[C@@H]1[C@@H](c1ccc(Cl)c(Cl)c1)C3` [(1S,2S,4S,7R)-2-(3,4-Dichlorophenyl)-8-azatricyclo[5.4.0.0^4,8]undecan-11-one], the IC50 in assay [1] worked out at 7.5 nM; in assay [2], 180 nM; in assay [3] it was 35 nM.
Consider `COC1CN2[C@H]3CC[C@@H]2[C@@H]1[C@@H](c1ccc(Cl)c(Cl)c1)C3` (stereo partly drawn) [(1S,3S,4S,8R)-3-(3 ,4-Dichlorophenyl)-5-methoxy-7-azatricyclo[5.3.0.0^4,8]decane], for which the values for the IC50 in assay [1], in assay [2] and in assay [3] were 0.1 nM, 22 nM and 1.4 nM, respectively.
The like results for `CC(=O)OC1CN2[C@H]3CC[C@@H]2[C@@H]1[C@@H](c1ccc(Cl)c(Cl)c1)C3` (stereo partly drawn) [(1S,3S,4S,8R)-3-(3,4-Dichlorophenyl)-7-azatricyclo[5.3.0.0^4,8]dec-5-yl acetate fumarate] were, in that order, 7.5 nM, 210 nM and 6.1 nM.
The like results for `OC1CN2[C@H]3CC[C@@H]2[C@@H]1[C@@H](c1ccc(Cl)c(Cl)c1)C3` (stereo partly drawn) [(1S,3S,4S,8R)-3-(3,4-Dichlorophenyl)-7-azatricyclo[5.3.0.0^4,8]decan-5-ol] were, in that order, 1.8 nM, 250 nM and 7.4 nM.
As for `CON=C1CN2[C@H]3CC[C@@H]2[C@@H]1[C@@H](c1ccc(Cl)c(Cl)c1)C3` [(1S,3S,4S,8R)-3-(3,4-Dichlorophenyl)-7-azatricyclo[5.3.0.0^4,8]decan-5-one O-methyl-oxime], the IC50 in assay [1] was determined as 3.2 nM; in assay [2] it was 16 nM; in assay [3], 0.9 nM.
As to `O=C1CN2[C@H]3CC[C@@H]2[C@@H]1[C@@H](c1ccc(Cl)c(Cl)c1)C3` [(1S,3S,4S,8R)-3-(3,4-Dichlorophenyl)-7-azatricyclo[5.3.0.0^4,8]decan-5-one], the results for the IC50 in assay [1], in assay [2] and in assay [3] were 2.6 nM, 120 nM and 5.2 nM, respectively.
